Reference: patent publication US20260344661A1, “USE OF AN ALKYLETHER SULFATE FOR IMPROVING THE EFFICACY OF HERBICIDES” (BASF SE, priority 2022, published 2026)

How the values were obtained:
HORVW (winter barley) = test: Greenhouse post-emergence weed control, damage vs untreated (HORVW); format: in vivo, Hordeum vulgare; conditions: 20 DAT, adjuvant g ai/ha: none (CE1-A)
AVEFA (wild oat) = test: Greenhouse post-emergence weed control, damage vs untreated (AVEFA); format: in vivo, Avena fatua; conditions: adjuvant g ai/ha: none (CE1-A)
Protocol: (§1) A greenhouse study was conducted to evaluate the effect of the alkylether sulfates of formula (I) and other adjuvants on the weed control efficacy of glufosinate. Seedlings of grass plants (AVEFA, ECHCG, DIGSA and SETVI) and broadleaf weeds (KCHSC, CHEAL, AMAPA, AMATA and ABUTH) were grown to a height of 3 to 20 cm, depending on the plant habit in 10×10×10 cm pots filled with sandy planting soil (Limburgerhof soil). The weeds were treated with postemergence applications of glufosinate ammonium at the respective application rates given in the following tables, either alone or combined with various amounts of the respective adjuvants.
(§2) For this, the herbicide formulation and the respective adjuvant were introduced into tap water to obtain the spray liquor. […] The spray liquor was then applied to the plant a spray volume of 200 l/ha using a sprayer (XR Teejet 110015).
(§3) The test period extended over 21 days. During this time, the plants were tended, and their response to the treatments with active compound was evaluated.
(§4) The evaluation for the damage caused by the chemical compositions was carried out using a scale from 0 to 100%, compared to the untreated control plants. Here, 0 means no damage and 100 means complete destruction of the plants.
(§5) The plants used in the greenhouse experiments belonged to the following species:
(§6) The results are summarized in the following tables 1 to 15 that show the applied doses of the individual actives as gram of active ingredient per hectare (g ai/ha), the herbicidal activity of the individual […]

ECHCG (barnyardgrass) = test: Greenhouse post-emergence weed control, damage vs untreated (ECHCG); format: in vivo, Echinochloa crus-galli; conditions: adjuvant g ai/ha: none (CE1-A)
Protocol: as §1, §2, §3, §4, §5, §6

DIGSA (large crabgrass) = test: Greenhouse post-emergence weed control, damage vs untreated (DIGSA); format: in vivo, Digitaria sanguinalis; conditions: 20 DAT, adjuvant g ai/ha: none (CE1-A)
Protocol: as §1, §2, §3, §4
(§7) The plants used in the greenhouse experiments belonged to the following species: […]

SETVI (green foxtail) = test: Greenhouse post-emergence weed control, damage vs untreated (SETVI); format: in vivo, Setaria viridis; conditions: adjuvant g ai/ha: none (CE1-A)
Protocol: as §1, §2, §3, §4, §5, §6

[1] = tested on: Øgras (average value of AVEFA, ECHCG, DIGSA and SETVI); test: Greenhouse post-emergence weed control, average over grasses (Øgras); format: in vivo; conditions: adjuvant g ai/ha: none (CE1-A)
Protocol: as §1, §2, §3, §4, §5, §6

KCHSC (kochia) = test: Greenhouse post-emergence weed control, damage vs untreated (KCHSC); format: in vivo, Kochia scoparia; conditions: 20 DAT, adjuvant g ai/ha: none (CE1-A)
Protocol: as §1, §2, §3, §4, §7

CHEAL (lambsquarter) = test: Greenhouse post-emergence weed control, damage vs untreated (CHEAL); format: in vivo, Chenopodium album; conditions: adjuvant g ai/ha: none (CE1-A)
Protocol: as §1, §2, §3, §4, §5, §6

AMAPA (palmer amaranth) = test: Greenhouse post-emergence weed control, damage vs untreated (AMAPA); format: in vivo, Amaranthus palmeri; conditions: 20 DAT, adjuvant g ai/ha: none (CE1-A)
Protocol: as §1, §2, §3, §4, §5
(§8) The results are summarized in the following tables 1 to 15 that show the applied doses of the individual actives as gram of active ingredient per hectare (g ai/ha), the herbicidal activity of the individual actives and of their combinations in post-emergence application assessed 14 and 28 day after treatment (DAT), respectively.

[2] = tested on: AMATA (common water hemp); test: Greenhouse post-emergence weed control, damage vs untreated (AMATA); format: in vivo, Amaranthus tuberculatus; conditions: 20 DAT, adjuvant g ai/ha: none (CE1-A)
Protocol: as §1, §2, §3, §4, §5, §8

ABUTH (velvetleaf) = test: Greenhouse post-emergence weed control, damage vs untreated (ABUTH); format: in vivo, Abutilon theophrasti; conditions: 20 DAT, adjuvant g ai/ha: none (CE1-A)
Protocol: as §1, §2
[…] During this time, the plants were tended, and their response to the treatments with active compound was evaluated.
as §4, §7

[3] = tested on: ØBLV (average value of KCHSC, CHEAL, AMAPA, AMATA and ABUTH); test: Greenhouse post-emergence weed control, average over broadleaf weeds (ØBLV); format: in vivo; conditions: 20 DAT, adjuvant g ai/ha: none (CE1-A)
Protocol: as §1, §2, §3, §4, §5, §8

[4] = 75 g ai/ha glufosinate rac., 56 (IE1-A), 62.125 (IE1-B), 51.625 (CE2-A, CE2-B), 55.75 (CE2-C), 66.75 (CE2-D), 103.25 (CE2-E)
[5] = 150 g ai/ha glufosinate rac., 112 (IE1-A), 124.25 (IE1-B), 103.25 (CE2-A, CE2-B), 111.5 (CE2-C), 133.5 (CE2-D), 206.5 (CE2-E)
[6] = 300 g ai/ha glufosinate rac., 223 (IE1-A, CE2-C), 248.5 (IE1-B), 206.5 (CE2-A, CE2-B), 267 (CE2-D), 413 (CE2-E)
[7] = 600 g ai/ha glufosinate rac., 446 (IE1-A, CE2-C), 497 (IE1-B), 413 (CE2-A, CE2-B), 534 (CE2-D), 826 (CE2-E)

## CP(=O)(O)CCC(N)C(=O)O.N (racemic) [CE1-A, ammonium (2RS)-2-amino-4-(methylphosphinato)butyric acid]
HORVW (winter barley); [4]
  % activity: 0%
HORVW (winter barley); [5]
  % activity: 0%
HORVW (winter barley); [6]
  % activity: 0%
AVEFA (wild oat); [4]
  % activity: 5%
AVEFA (wild oat); [5]
  % activity: 0%
AVEFA (wild oat); [6]
  % activity: 10%
AVEFA (wild oat); [7]
  % activity: 25%
ECHCG (barnyardgrass); [4]
  % activity: 0%
ECHCG (barnyardgrass); [5]
  % activity: 0%
ECHCG (barnyardgrass); [6]
  % activity: 0%
ECHCG (barnyardgrass); [7]
  % activity: 0%
DIGSA (large crabgrass); [4]
  % activity: 0%
DIGSA (large crabgrass); [5]
  % activity: 0%
DIGSA (large crabgrass); [6]
  % activity: 50%
DIGSA (large crabgrass); [7]
  % activity: 80%
SETVI (green foxtail); [4]
  % activity: 80%
SETVI (green foxtail); [5]
  % activity: 95%
SETVI (green foxtail); [6]
  % activity: 98%
SETVI (green foxtail); [7]
  % activity: 98%
[1]; [4]
  % activity (Øgras): 21%
[1]; [5]
  % activity (Øgras): 24%
[1]; [6]
  % activity (Øgras): 40%
[1]; [7]
  % activity (Øgras): 51%
KCHSC (kochia); [4]
  % activity: 0%
KCHSC (kochia); [5]
  % activity: 0%
KCHSC (kochia); [6]
  % activity: 5%
KCHSC (kochia); [7]
  % activity: 20%
CHEAL (lambsquarter); [4]
  % activity: 0%
CHEAL (lambsquarter); [5]
  % activity: 0%
CHEAL (lambsquarter); [6]
  % activity: 10%
CHEAL (lambsquarter); [7]
  % activity: 10%
AMAPA (palmer amaranth); [4]
  % activity: 50%
AMAPA (palmer amaranth); [5]
  % activity: 98%
AMAPA (palmer amaranth); [6]
  % activity: 98%
AMAPA (palmer amaranth); [7]
  % activity: 98%
[2]; [4]
  % activity: 20%
[2]; [5]
  % activity: 98%
[2]; [6]
  % activity: 85%
[2]; [7]
  % activity: 98%
ABUTH (velvetleaf); [4]
  % activity: 5%
ABUTH (velvetleaf); [5]
  % activity: 20%
ABUTH (velvetleaf); [6]
  % activity: 75%
ABUTH (velvetleaf); [7]
  % activity: 60%
[3]; [4]
  % activity (ØBLV): 15%
[3]; [5]
  % activity (ØBLV): 43%
[3]; [6]
  % activity (ØBLV): 55%
[3]; [7]
  % activity (ØBLV): 57%
